Reference: patent US20060234922A1, “Remedy for corneal failure” (priority 2002, published 2006)

Legend:
Assay type in all cases: cell-based
[1] = tested on: cultured rabbit trigeminal nerve cells; assay: Effect of Octreotide on axon extension of cultured rabbit trigeminal nerve cells (anti-neurofilament 200 immunostaining, image analysis); details: Octreotide 10 μM final concentration, 24 hr culture
Source text: Effect of Octreotide on Axon Extension of Cultured Rabbit Trigeminal Nerve Cells (In Vitro Test)
(§1) Japanese White Rabbits (2-3 days old) purchased from Fukusaki Rabbit Warren were used.
Octreotide (SMS 201-995, American Peptide Company, Inc.) was used.
The cell culture: Trigeminal nerve cells were isolated by reference to the report of Chan et al. (Kuan Y. Chan and Richard H. Haschke. Exp. Eye Res. 41: 687-699, 1985). To be specific, under ether anesthesia, after cardiac perfusion of rabbit with saline, the trigeminal ganglia was removed, and dispersed in nerve dispersion solution (SUMITOMO BAKELITE Co., Ltd.). The cells were counted and innoculated in an 8 well culture slide (BECTON DICKINSON) coated with polylysine. The cell number was about 3×10^3 cells per well, and the culture conditions were 5% CO2, 95% air, 37° C. […] Immunostaining: At 24 hr from culture, the cells were fixed with 4% paraformaldehyde at room temperature for 2 hr, and nerve cell, axon and dendrite were fluorescence stained with anti-neurofilament 200 antibody (NF, Anti-Neurofilament 200, Sigma) specifically recognizing a neurofilament constituting the nerve cell and neurite. The images of the stained cells were imported into a computer from the fluorescence microscope, and the effect of Octreotide on the neurite formation and axon extension was evaluated using an image analysis soft (MacSCOP, MITANI CO.). […]

[2] = tested on: cultured rabbit trigeminal nerve cells; assay: Effect of somatostatin receptor agonist on axon extension of cultured rabbit trigeminal nerve cells (neurofilament absorbance at 492 nm, fluorescence microscopy); details: 48 hr culture; for absorbance indicating the neurofilament amount of the cells (492 nm): control group 0.798, n=3
Source text: Effect of Somatostatin Receptor Agonist on Axon Extension of Cultured Rabbit Trigeminal Nerve Cell (In Vitro Test)
Japanese White Rabbits (2-3 days old) purchased from KITAYAMA LABES Co., Ltd. were used.
As a somatostatin receptor agonist, which is a test substance, t-butyl 6-amino-2-(3-(1H-indol-3-yl)-2-((4-(2-oxo-2,3-dihydrobenzoimidazol-1-yl)piperidine-1-carbonyl)amino)propionylamino)hexanoate, which is an SSTR2 specific agonist (hereinafter to be referred to as compound 1), and 1-(3-(N-(5-bromopyridin-2-yl)-N-(3,4-dichlorobenzyl)amino)propyl)-3-(3-(1H-imidazol-4-yl)propyl)thiourea (hereinafter to be referred to as compound 2), which is an SSTR4 specific agonist, were used. The compound 1 was a compound of Example 4 and synthesized according to the method of Example 2 of JP-A-2001-519812 (WO98/44922). The compound 2 was synthesized according Example 15 of JP-A-2001-525793 (WO97/43278).
Rabbit trigeminal nerve cells were isolated by reference to the report of Chan et al. (Kuan Y. Chan and Richard H. Haschke. Exp. Eye Res. 41: 687-699, 1985). To be specific, under ether anesthesia, cardiac perfusion with saline was performed and trigeminal ganglia was removed. Using nerve dispersion solution (SUMITOMO BAKELITE Co., Ltd.), trigeminal ganglia was dispersed to prepare trigeminal nerve cells. For cell culture, Neurobasal medium (GIBCO) added with B27 Supplement (GIBCO; final concentration 2% v/v) and L-Glutamine (GIBCO; final concentration 1 mM) was used under the culture conditions of 5% CO2, 95% air, 100% humidity, 37° C., 48 hr. […]
After the completion of 48 hr culture, the cells innoculated on a 96 well plate were fixed with 4% paraformaldehyde and the neurofilament of the cell was labeled with anti-neurofilament 200 antibody (Sigma) specifically recognizing a neurofilament constituting nerve cell body and neurite and HRP conjugated goat anti-mouse IgG antibody (Wako Pure Chemical Industries, Ltd.). […] After the completion of coloring, the absorbance at 492 nm was measured and the measured value was taken as the amount of the stained neurofilament and used as an index for neuritogenesis (Taniwaki T., et al. Dev. Brain Res. (1995) 88, 109-166). The cells plated on an 8 well culture slide were fixed with 4% paraformaldehyde, a sample fixed with an anti-neurofilament 200 antibody (Sigma) was stained, and fluorescence labeled with Alexa Fluor 568 conjugated secondary antibody (Molecular probes). The fluorescence labeled cells were observed under a fluorescence microscope and the cell images were imported into a computer.

[3] = tested on: cultured rabbit trigeminal nerve cells; assay: Nerve axon extension promoting action in cultured rabbit trigeminal nerve cells (phase contrast microscopy); details: NGF 1 μg/mL final concentration, 48 hr culture, compared to non-addition group
Procedure: Nerve Axon Extension Promoting Action in Cultured Rabbit Trigeminal Nerve Cells (In Vitro Experiment)
as §1
As a test substance, somatostatin (manufactured by CALBIOCHEM, Lot B33795) and NGF (NGF-7S, manufactured by Sigma) were used. The test substance was dissolved in phosphate buffer (PBS) to 100 μM somatostatin, 20 μg/mL NGF-7S. The prepared reagents were preserved at −80° C. and dissolved before use.
The trigeminal nerve cell was isolated according to the report of Chan et al. (Kuan Y. Chan and Richard H. Haschke. Exp. Eye Res. 41: 687-699, 1985). To be specific, under ether anesthesia, after cardiac perfusion of rabbit with saline, the trigeminal ganglia was removed, trigeminal ganglia was dispersed using a nerve dispersion solution (SUMITOMO BAKELITE Co., Ltd.), and the cells were plated in a 24-well plate (SUMITOMO BAKELITE Co., Ltd.) coated with polylysine/laminin. The number of cells was about 3000 cells per well and the culture conditions were 5% CO2, 95% air at 37° C. […]
The effect on the formation of neurite and the axon extension from trigeminal nerve cell by somatostatin and NGF were morphologically evaluated by the observation using a phase contrast microscope.

Molecule: C[C@@H](O)[C@@H]1NC(=O)[C@H](CCCCN)NC(=O)[C@@H](Cc2c[nH]c3ccccc23)NC(=O)[C@H](Cc2ccccc2)NC(=O)[C@@H](NC(=O)[C@H](N)Cc2ccccc2)CSSC[C@@H](C(=O)N[C@H](CO)[C@@H](C)O)NC1=O [Octreotide]
- neuritogenic cells compared to the control cell group (fluorescence microscopic images) [1]: neuritogenic cells increased
- proportion (%) of neuritogenic cell to the total cell number ([1]; control group about 21%, n=3, p<0.05): about 43%

Molecule: CC(C)(C)OC(=O)C(CCCCN)NC(=O)C(Cc1c[nH]c2ccccc12)NC(=O)N1CCC(n2c(=O)[nH]c3ccccc32)CC1 (stereo not shown) [compound 1, t-butyl 6-amino-2-(3-(1H-indol-3-yl)-2-((4-(2-oxo-2,3-dihydrobenzoimidazol-1-yl)piperidine-1-carbonyl)amino)propionylamino)hexanoate]
- neuritogenic cells compared with the control group (fluorescence microscopic images) ([2]; final concentration 1 μM): increase in the neuritogenic cells
- absorbance indicating the neurofilament amount of the cells (492 nm) ([2]; final concentration 1 μM): 0.876

Molecule: S=C(NCCCc1c[nH]cn1)NCCCN(Cc1ccc(Cl)c(Cl)c1)c1ccc(Br)cn1 [compound 2, 1-(3-(N-(5-bromopyridin-2-yl)-N-(3,4-dichlorobenzyl)amino)propyl)-3-(3-(1H-imidazol-4-yl)propyl)thiourea]
- neuritogenic cells compared with the control group (fluorescence microscopic images) ([2]; final concentration 0.1 μM): increase in the neuritogenic cells
- absorbance indicating the neurofilament amount of the cells (492 nm) ([2]; final concentration 0.1 μM): 0.850

B1: NGF: nerve growth factor (NGF-7S, manufactured by Sigma) (protein, UniProt P01139 122-241, looked up)
Beta-nerve growth factor: SSTHPVFHMGEFSVCDSVSVWVGDKTTATDIKGKEVTVLAEVNINNSVFRQYFFETKCRASNPVESGCRGIDSKHWNSYCTTTHTFVKALTTDEKQAAWRFIRIDTACVCVLSRKATRRG
modifications: 7S complex
- formation of neurite and axon extension from trigeminal nerve cell, morphological evaluation [3]: clear nerve cell axon extension-promoting action was observed
